These are literature values, as cited in the CATMoS acute toxicity set (Mansouri et al. 2021).

Where “and” joins values, the source holds several entries; their conditions need not be identical. Equal values may be shown once.

This data set is described as follows: rat acute oral toxicity. The note with it: in vivo.
One may read the LD50 as the dose expected to kill half of the subjects tested. For the compound `Nc1cc(Cl)c(NC2=NCCN2)c(Cl)c1`, the LD50 is 38 mg/kg.

With `CCCCc1c(OC(=O)C23CC4CC(CC(C4)C2)C3)n(-c2ccccc2)n(-c2ccccc2)c1=O`, the LD50 was 1700 mg/kg.

On to `COP(=S)(OC)SCC(=O)N1CCOCC1`, for which the 50% lethal dose (LD50) is 190 mg/kg.

`O=CNC(N1CCOCC1)C(Cl)(Cl)Cl` (stereo not drawn): the LD50 was 990 mg/kg.

`COc1c(OP(=O)(OC(C)C)OC(C)C)cnn(C)c1=O`: the LD50 was 1.9 mg/kg.

Take `CC(=O)c1ccc2oc3ncccc3c(=O)c2c1`: the LD50 was 1680 mg/kg.

Take `O=[N+]([O-])O[C@@H]1CO[C@H]2[C@@H]1OC[C@@H]2O`: the LD50 is 2010 mg/kg.

As to `FC(F)(F)c1nc2c(Cl)c(Br)c(Cl)cc2[nH]1`, the 50% lethal dose (LD50) was 8.78 mg/kg.

Regarding `CCS(=O)Cc1ccccc1OC(=O)NC` (stereo not drawn), the LD50 was 150 mg/kg.

For `O=S(=O)(O)c1cc(O)ccc1O`, the LD50 is 7500 mg/kg.

Take `C[Si](C)(C)OP(=O)(O[Si](C)(C)C)O[Si](C)(C)C`: the LD50 was 3440 mg/kg.

Regarding `O=C(Cc1ccccc1)NNCc1ccccc1`, the LD50 was 2500 mg/kg.

On to `CCOC(=O)Nc1ccc(NCc2ccc(F)cc2)nc1N`, for which the 50% lethal dose (LD50) was 1660 mg/kg.

In the case of `FC(F)(F)c1cccc(CNC2=NCCS2)c1`, the LD50 is 50 mg/kg.

`CCCCCC(C)O` (stereo not drawn): the LD50 is 2580 mg/kg.

With `C=CCN1CC[C@]23CCCC[C@H]2[C@H]1Cc1ccc(O)cc13`, the LD50 is 949 mg/kg.

Consider `CCC(=O)CC`, for which the LD50 was 2140 mg/kg.

For the compound `O=C1CCCCCCCC(=O)OCCO1`, the median lethal dose (LD50) is 9200 mg/kg.

For the compound `CCOP(=S)(OCC)Oc1ccc2c(C)cc(=O)oc2c1`, the 50% lethal dose (LD50) is 14.7 mg/kg.

For the compound `Cc1cc(S(=O)(=O)O)c(N)cc1Cl`, the LD50 is 12300 mg/kg.

With `C=CN(CC)N=O`, the LD50 was 88 mg/kg.

With `FC(F)(F)c1nnc2c3ccccc3ccn12`, the 50% lethal dose (LD50) was 660 mg/kg.

Take `CC(O)C1Sc2ccccc2N(CCCN(C)C)C1c1ccccc1` (stereo not drawn): the median lethal dose (LD50) is 800 mg/kg.

`ClC1=C(Cl)C2(Cl)C3C4OC(C5OC54)C3C1(Cl)C2(Cl)Cl` (stereo not drawn): the median lethal dose (LD50) was 142 mg/kg.

Regarding `CCN(CCO)c1ccc(N=O)c(C)c1`, the median lethal dose (LD50) is 336 mg/kg.

As for `c1cc2c(c(NC3=NCCN3)c1)CCC2`, the LD50 was 481 mg/kg.

Regarding `Oc1c(Cl)cnc(Cl)c1Cl`, the LD50 was 80 mg/kg.

`C=C(C)C(=O)OCC1CCC2OC2C1` (stereo not drawn): the LD50 was 2500 mg/kg.

As for `CC(C)=CC1CC(C)CCO1` (stereo not drawn), the 50% lethal dose (LD50) is 4300 mg/kg.

With `CCOP(=O)(OCC)SCS(=O)CC` (stereo not drawn), the LD50 was 1 mg/kg.

With `CCOC(C1=NCC(C)(CC)CN1)c1cccc(F)c1` (stereo not drawn), the 50% lethal dose (LD50) was 165 mg/kg.

In the case of `C=C(C)C(=O)OCC(CCCC)CCCCCC` (stereo not drawn), the 50% lethal dose (LD50) is 26000 mg/kg.

As to `CCS(=O)CCSP(=S)(OC)OC` (stereo not drawn), the median lethal dose (LD50) was 100 mg/kg.

On to `CCCCNC(C)c1ccccc1` (stereo not drawn), for which the LD50 was 360 mg/kg.

As to `COc1ccc2c(c1)CCCC2=O`, the 50% lethal dose (LD50) was 300 mg/kg.

Turning to `CCOP(=S)(OCC)O/N=C(\C#N)c1ccccc1`, the LD50 was 300 mg/kg.

Consider `Oc1cccc(Oc2ccccc2)c1`, for which the LD50 was 1210 mg/kg.

As for `COP(=S)(OC)SC(C)N1CC(=O)C(=O)C1` (stereo not drawn), the LD50 is 5.6 mg/kg.

`CC1NCCOC1c1ccccc1` (stereo not drawn): the LD50 is 370 mg/kg and 165 mg/kg.

Take `COC(=O)Nc1nc2ccccc2n1C(=O)NCCCCCC#N`: the LD50 is 2500 mg/kg.

In the case of `CCCCCCCCCCCOC(=O)Cc1ccc(N(CCCl)CCCl)cc1`, the LD50 was 50 mg/kg.

Regarding `FC(F)OC(Cl)C(F)(F)F` (stereo not drawn), the 50% lethal dose (LD50) is 4770 mg/kg.

On to `CC1OC1C` (stereo not drawn), for which the LD50 was 2150 mg/kg.

As to `Nc1cc(Cl)ccc1Oc1ccc(Cl)cc1Cl`, the LD50 was 2290 mg/kg.

Turning to `COC(=O)C1=C(C)NC(C)=C(C(=O)OCC(C)=O)C1c1ccccc1[N+](=O)[O-]` (stereo not drawn), the LD50 was 1460 mg/kg.

For the compound `CCOC=C(C(=O)OCC)C(=O)OCC`, the LD50 was 925 mg/kg.

Consider `CNC(C)C#N` (stereo not drawn), for which the 50% lethal dose (LD50) was 48 mg/kg.

Regarding `Cl[C@H]1[C@H](Cl)[C@@H](Cl)[C@H](Cl)[C@@H](Cl)[C@H]1Cl` (racemic), the LD50 is 1000 mg/kg.

Turning to `FC(F)(F)c1nc2c(Br)c(Cl)c(Br)cc2[nH]1`, the LD50 is 8.47 mg/kg.

With `O=c1[nH]c2ccccc2n1C1CCN(CCCC(c2ccc(F)cc2)c2ccc(F)cc2)CC1`, the LD50 is 1100 mg/kg.

Take `CCCCCCCCc1ccc(-c2ccc(C#N)cc2)cc1`: the LD50 is 2200 mg/kg.

On to `CC1(C)S[C@@H]2[C@H](NC(=O)C(C(=O)O)c3ccsc3)C(=O)N2[C@H]1C(=O)O` (stereo partly drawn), for which the LD50 was 16000 mg/kg.

For `C/N=C/Nc1ccc(Cl)cc1C`, the LD50 is 264 mg/kg.

With `N#C[C@H]1O[C@@H]1C#N`, the median lethal dose (LD50) is 250 mg/kg.

As for `OB(O)c1ccccc1`, the LD50 was 740 mg/kg.

Turning to `O=C1CCCN1CCO`, the LD50 was 14400 mg/kg.

On to `O=C1c2ccccc2CCC1CNCCc1ccc(O)cc1` (stereo not drawn), for which the 50% lethal dose (LD50) is 650 mg/kg.

With `CCN(CC)c1ccc(N=O)c(O)c1`, the 50% lethal dose (LD50) was 315 mg/kg.

Consider `O=C(OCCOC(=O)c1ccccc1)c1ccccc1`, for which the LD50 is 5340 mg/kg.

As for `CN1CCC(=C2c3ccccc3CC(=O)c3sccc32)CC1`, the LD50 was 360 mg/kg.

In the case of `CCCCC(CC)CNc1ccccc1` (stereo not drawn), the LD50 is 2410 mg/kg.

For the compound `CN(C)C(=O)Cl`, the 50% lethal dose (LD50) was 1000 mg/kg.

As for `CCCCCCCCCCCCN(CCC(=O)O)CCC(=O)O`, the LD50 is 31300 mg/kg.
